Settings: Vibrating tube method; for mass density: Liquid; for specific volume: Gas

F/C=C\C(F)(F)F [(Z)-1,3,3,3-tetrafluoro-1-propene]
Settings | mass density [kg/m3] | specific volume [m3/kg]
303.16 K, 217 kPa | 1209.4 | –
303.16 K, 692 kPa | 1211.4 | –
303.16 K, 2712 kPa | 1219.1 | –
303.16 K, 5769 kPa | 1229.9 | –
303.16 K, 6772 kPa | 1233.2 | –
303.16 K, 9780 kPa | 1242.9 | –
303.16 K, 11794 kPa | 1249 | –
308.15 K, 83.4 kPa | – | 0.259
308.15 K, 115.8 kPa | – | 0.185
308.15 K, 187.8 kPa | – | 0.111
308.15 K, 194.6 kPa | – | 0.107
308.15 K, 215.4 kPa | – | 0.095
313.15 K, 84.9 kPa | – | 0.259
313.15 K, 117.9 kPa | – | 0.185
313.15 K, 191.5 kPa | – | 0.111
313.15 K, 198.5 kPa | – | 0.107
313.15 K, 325 kPa | 1182 | –
313.15 K, 777 kPa | 1184 | –
313.15 K, 1789 kPa | 1188.5 | –
313.15 K, 2791 kPa | 1192.7 | –
313.15 K, 3819 kPa | 1196.9 | –
313.15 K, 4846 kPa | 1201.1 | –
313.15 K, 5847 kPa | 1204.9 | –
313.15 K, 6862 kPa | 1208.7 | –
313.15 K, 7865 kPa | 1212.3 | –
313.15 K, 8867 kPa | 1215.8 | –
313.15 K, 9876 kPa | 1219.3 | –
313.15 K, 10884 kPa | 1222.7 | –
313.15 K, 11896 kPa | 1226 | –
313.15 K, 12909 kPa | 1229.2 | –
313.15 K, 13913 kPa | 1232.4 | –
313.15 K, 14924 kPa | 1235.4 | –
313.15 K, 15924 kPa | 1238.4 | –
313.15 K, 16925 kPa | 1241.4 | –
313.15 K, 17931 kPa | 1244.2 | –
313.15 K, 18933 kPa | 1247 | –
313.15 K, 19934 kPa | 1249.8 | –
313.15 K, 20940 kPa | 1252.5 | –
313.15 K, 21945 kPa | 1255.1 | –
313.15 K, 22953 kPa | 1257.8 | –
313.15 K, 23961 kPa | 1260.4 | –
313.15 K, 24962 kPa | 1262.9 | –
313.15 K, 25963 kPa | 1265.3 | –
313.15 K, 26966 kPa | 1267.7 | –
313.15 K, 27968 kPa | 1270.1 | –
313.15 K, 28969 kPa | 1272.5 | –
313.15 K, 29976 kPa | 1274.8 | –
313.15 K, 30978 kPa | 1277 | –
313.15 K, 31986 kPa | 1279.3 | –
313.15 K, 32992 kPa | 1281.6 | –
313.15 K, 34000 kPa | 1283.8 | –
313.16 K, 219.8 kPa | – | 0.095
315.15 K, 270.7 kPa | – | 0.076
318.15 K, 86.3 kPa | – | 0.26
318.15 K, 120 kPa | – | 0.185
318.15 K, 195.2 kPa | – | 0.111
318.15 K, 202.2 kPa | – | 0.107
318.15 K, 224 kPa | – | 0.095
320.15 K, 276.3 kPa | – | 0.076
323.14 K, 4763 kPa | 1174.1 | –
323.14 K, 16843 kPa | 1218.6 | –
323.14 K, 21889 kPa | 1233.7 | –
323.14 K, 29946 kPa | 1254.9 | –
323.14 K, 30956 kPa | 1257.3 | –
323.15 K, 87.8 kPa | – | 0.26
323.15 K, 122.1 kPa | – | 0.185
323.15 K, 198.9 kPa | – | 0.111
323.15 K, 206 kPa | – | 0.107
323.15 K, 228.3 kPa | – | 0.095
323.15 K, 363.2 kPa | – | 0.057
323.15 K, 392 kPa | 1153.1 | –
323.15 K, 686 kPa | 1154.6 | –
323.15 K, 1702 kPa | 1159.8 | –
323.15 K, 2712 kPa | 1164.7 | –
323.15 K, 3731 kPa | 1169.5 | –
323.15 K, 5778 kPa | 1178.4 | –
323.15 K, 6786 kPa | 1182.7 | –
323.15 K, 7786 kPa | 1186.7 | –
323.15 K, 8786 kPa | 1190.6 | –
323.15 K, 9791 kPa | 1194.4 | –
323.15 K, 10796 kPa | 1198.2 | –
323.15 K, 11803 kPa | 1201.8 | –
323.15 K, 12805 kPa | 1205.3 | –
323.15 K, 13812 kPa | 1208.8 | –
323.15 K, 14822 kPa | 1212.1 | –
323.15 K, 15831 kPa | 1215.4 | –
323.15 K, 17849 kPa | 1221.7 | –
323.15 K, 18857 kPa | 1224.9 | –
323.15 K, 19866 kPa | 1227.9 | –
323.15 K, 20875 kPa | 1230.8 | –
323.15 K, 22900 kPa | 1236.5 | –
323.15 K, 23908 kPa | 1239.3 | –
323.15 K, 24908 kPa | 1242 | –
323.15 K, 25914 kPa | 1244.6 | –
323.15 K, 26926 kPa | 1247.3 | –
323.15 K, 27933 kPa | 1249.8 | –
323.15 K, 28945 kPa | 1252.4 | –
323.15 K, 31966 kPa | 1259.8 | –
323.15 K, 32979 kPa | 1262.2 | –
323.15 K, 33992 kPa | 1264.5 | –
325.15 K, 281.9 kPa | – | 0.076
328.15 K, 89.2 kPa | – | 0.26
328.15 K, 124.1 kPa | – | 0.185
